{"source": "patent US7198931B2", "about": "“Phosphorylated glyoxalase I and its use” (Vlaams Interuniversitair Instituut voor Biotechnologie VZW, priority 2001, dated 2007)", "assay_type_in_all_cases": "cell-based", "key": {"[1]": {"tested_on": "L929 cells", "method": "Murine TNF (mTNF) was obtained from Roche Diagnostics and was used at 1000 IU/ml unless indicated otherwise. Propidium iodide (PI) and cycloheximide (CHX) (all from Sigma) were used at concentrations of 30 μM and 50 μg/ml, respectively.\nCell death in L929 was induced by addition of TNF to the cell suspension. Cell death was measured by quantifying PI-positive cells by FACS (FACSCalibur, Becton Dickinson, San Jose, Calif.). The PI dye was excited with an argon-ion laser at 488 nm; PI fluorescence was measured above 590 nm using a long-pass filter. Routinely, 3,000 cells were analyzed. Cell death is expressed as the percentage of PI-positive cells in the total cell population."}, "[2]": {"tested_on": "specific MG-derived AGE", "assay": "Detection of the specific MG-derived AGE by Western blot with mAb6B, densitometry of the ECL signal", "quoted_text": "L929 cells were seeded 48 hours prior to the experiment. TNF incubations (1000 U/ml) were done in the presence of CHX to synchronize cell death. After TNF incubations (1.5 hours or 2.5 hours), the cells were rinsed three times with ice-cold PBS buffer and cell lysates were prepared in a CHAPS-containing cytosol extraction buffer (Guy et al., 1992). […] To use the antibody sparingly, SDS-PAGE gels were only run over a distance of 5 cm."}, "[3]": {"target": "T1, glyoxalase I (Mus musculus, UniProt Q9CPU0)", "T1 construct": "TNF-induced phosphorylation of endogeneous glyoxalase I in L929 cells; endogenous in cells; host or cells: L929 cells", "T1 sequence (Q9CPU0 2-184 limits assumed)": "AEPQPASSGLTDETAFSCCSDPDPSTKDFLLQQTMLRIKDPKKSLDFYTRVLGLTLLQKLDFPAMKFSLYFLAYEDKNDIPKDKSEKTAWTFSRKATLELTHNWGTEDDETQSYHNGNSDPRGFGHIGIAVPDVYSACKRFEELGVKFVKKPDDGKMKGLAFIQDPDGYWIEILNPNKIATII", "assay": "TNF-induced phosphorylation of glyoxalase I (32P labeling, 2-D gels, Western blot with anti-human glyoxalase I antibody)", "method": "L929 cells were plated 48 hours prior to the experiment. ^32P labeling was carried out as described in (Guy et al., 1992). TNF treatments (1000 IU/ml, 1.5 hours) were done in the presence of cycloheximide (CHX), to synchronize cell death. To simplify the 2-D phosphoprotein pattern and subsequent computer-assisted analysis, we prepared two subcellular protein fractions. The cytosolic protein fraction, containing soluble cytoplasmic molecules and molecules derived from single-membrane organelles, was obtained as the supernatant from digitonin (0.03%)-permeabilized cells. After rinsing once with excess PBS buffer, the remaining cell fraction was lysed in a CHAPS (2%)-containing buffer as described in (Guy et al., 1992). This lysate was then centrifuged (20,000 g) and the supernatant was used as the organelle fraction; it is enriched for mitochondrial and cytoskeleton-derived proteins.\nIsoelectric focusing. […] Protein samples were precipitated with ethanol and redissolved in lysis buffer.\nSDS-PAGE. The second dimension (SDS-PAGE) was run on large vertical gels (12.5% acrylamide, Biorad).\nProteins were separated by SDS-PAGE (12.5%) and transferred to a PVDF membrane (Hybond-P, Amersham Pharmacia Biotech). […]"}, "[4]": {"conditions": "L929 cells pretreated (BBGD 20 μM; H89 5 μM), after 1.5 hours of TNF treatment"}, "[5]": {"conditions": "L929 cells pretreated (BBGD 20 μM; H89 5 μM), after 2.5 hours of TNF treatment"}}, "note": "Like-named read-outs stand apart in the source and are kept apart here."}
{"smiles": "O=CC[C@@H](O)[C@H](O)[C@H](O)CO", "note": "[2-deoxyglucose]", "values": [{"measurement": "inhibition of TNF-induced cell death", "setting": "[1]; 2-deoxyglucose 2:1 ratio to glucose", "result": 65, "unit": "%"}, {"measurement": "inhibition of formation of the specific MG-derived AGE", "setting": "[2]; TNF 1000 U/ml + CHX, 2.5 hours, 2-deoxyglucose 2:1 ratio to glucose, given with TNF", "result": 65, "unit": "%"}]}
{"smiles": "NC(CCC(=O)NC(CSCc1ccc(Br)cc1)C(=O)NCC(=O)OC1CCCC1)C(=O)OC1CCCC1", "note": "(stereo not shown) [BBGD, s-p-bromobenzylglutathione cyclopentyl diester]", "values": [{"measurement": "increase in TNF-induced cell death (synergistic effect)", "setting": "[1]; inhibitor and TNF added at the same time, 20 μM", "result": 50, "unit": "%"}, {"measurement": "inhibition of TNF-induced cell death", "setting": "[1]; preincubation 1 hour 10 minutes with inhibitor, 20 μM", "result": 60, "unit": "%"}, {"measurement": "reduction of formation of the specific MG-derived AGE", "setting": "[2]; [4]", "result": 50, "unit": "%"}, {"measurement": "reduction of formation of the specific MG-derived AGE", "setting": "[2]; [5]", "result": 10, "unit": "%"}, {"measurement": "effect on TNF-induced phosphorylation of GLO1", "setting": "[3]; cells preincubated with the inhibitor for 1 hour 10 minutes, 2-D gels pH 3–10", "result": "inhibits the TNF-induced phosphorylation of GLO1"}]}
{"smiles": "COc1ccc(O)c(C(C)(C)C)c1", "note": "[BHA, butylated hydroxyanisole]", "values": [{"measurement": "reduction of formation of the specific MG-derived AGE", "setting": "[2]; TNF 1000 U/ml + CHX, 2.5 hours, BHA 100 μM given 0.5 hour after TNF", "result": 65, "unit": "%"}]}
{"smiles": "O=S(=O)(NCCNC/C=C/c1ccc(Br)cc1)c1cccc2cnccc12", "note": "[H89]", "values": [{"measurement": "effect on TNF-induced cell death", "setting": "[1]; pretreatment 2 hours, 1 μM", "result": "inhibitory effect"}, {"measurement": "inhibition of TNF-induced cell death", "setting": "[1]; pretreatment 2 hours, 5 μM", "result": "> 50", "unit": "%"}, {"measurement": "reduction of formation of the specific MG-derived AGE", "setting": "[2]; [4]", "result": 70, "unit": "%"}, {"measurement": "reduction of formation of the specific MG-derived AGE", "setting": "[2]; [5]", "result": 20, "unit": "%"}, {"measurement": "effect on induction of the more acidic (phosphorylated) isoform of glyoxalase I by TNF", "setting": "[3]; L929 cells, pretreatment, 5 μM", "result": "completely abolished"}]}
{"smiles": "CC(=O)C=O", "note": "[MG, methylglyoxal]", "values": [{"measurement": "effect of exogeneously added MG on TNF-induced cell death", "setting": "[1]; 5.5 hours incubation with TNF and methylglyoxal, concentration-dependent", "result": "strongly synergistic"}]}
{"smiles": "N=C(N)NN", "note": "[aminoguanidine]", "values": [{"measurement": "inhibition of TNF-induced cell death", "setting": "[1]; 16 hours TNF 20 U/ml, 400 μM", "result": 15, "unit": "%"}, {"measurement": "maximum inhibition of TNF-induced cell death", "setting": "[1]; 16 hours TNF 20 U/ml, 600 or 800 μM", "result": 25, "unit": "%"}]}
